In PMC12024814, “Ruthenium(II)–Arene Complexes with a 2,2′-Bipyridine Ligand as Anti-Aβ Agents” (Biomolecules, 2025):

Columns and labels:
Aβ40 [1] = target: T1, Aβ40 (Homo sapiens, UniProt P05067); experiment: Thioflavin T (ThT) fluorescence assay of Aβ40 aggregation; type: biochemical; settings: for Ranking ThT: scale 1 to 5 (1 = best, 5 = worst); for relative aggregation of Aβ40 (ThT fluorescence normalized to Aβ40 alone): equimolar 10 µM complex and Aβ40, 10 µM ThT, final 6 h time point, 37 °C
T1 construct: Lyophilized Aβ40 was monomerized following previous procedures; purchased GenScript
Description: All PBS used in the assay was filtered through a 0.20 μm Titan 3 syringe filter prior to use. The Ru stock solutions initially dissolved about 1.5 mg of each Ru complex in 100 µL DMSO and diluted it to 10 mL with PBS. Thioflavin T (ThT) was prepared in the same manner as the Ru complexes but was filtered prior to use in the assay. Lyophilized Aβ40 was monomerized following previous procedures and stored at −20 °C until use. When removed from the freezer, peptide samples were held on ice for 20 min prior to preparation for the assay. The Aβ40 was mixed with a 15 μL aliquot of DMSO and gently flicked to initiate dissolution. Next, 135 μL PBS was added, and the sample was sonicated until the solution was clear. The concentration of the Aβ40 stock solution was determined using an Implen NanoPhotometer N50 at λ = 280 nm with an extinction coefficient of 1490 M^−1 cm^−1 [27]. Samples were prepared in a 96-well plate by the sequential addition of PBS, Ru, ThT, and Aβ, where the final volume was 150 μL, and the analyte concentrations were 10 μM each. Thioflavin T (ThT) fluorescence was measured using the SpectraMax M3 plate reader with λex = 440 nm and λem = 480 nm. Measurements were taken every 30 min for a total of 6 h, with shaking occurring between each reading.
Each of the prepared Ru complexes was mixed with an equimolar amount of Aβ40 (10 µM), along with ThT (10 µM). Each sample was prepared in triplicate, loaded onto a microwell plate, and incubated at 37 °C with constant agitation to promote aggregation, with fluorescence measurements taken every 30 min for up to 6 h. The resultant fluorescence signals were normalized to the last time point for the samples of Aβ40 alone. After 4 h of incubation, a sharp increase in fluorescence for the peptide alone was observed, signifying that aggregation was occurring (Figure 5). […] Remarkably, the activity shown by RuBA is among the greatest we have measured thus far across a variety of Ru complexes. To confirm this activity, the samples from the ThT assay were subjected to additional analysis, as described below.
Figure 5 ThT fluorescence results following the incubation of equimolar solutions (10 μM) of Aβ40 with the Ru complexes for up to 6 h at 37 °C. The signals were normalized to the positive control of the free peptide in solution at the 6 h time point. The error bars represent the standard deviation observed for each data point for the respective samples.

[2] = target: T2, human serum albumin (HSA) (Homo sapiens, UniProt P02768); experiment: Protein binding assay, warfarin (WF) displacement, Sudlow site I; settings: warfarin probe, Stern–Volmer slope, HSA and WF 2.5 μM, PBS
T2 construct: purchased Sigma Aldrich
Description: A stock of human serum albumin (HSA, 100 μM) was prepared using PBS, while the probes dansyl glycine (DG) and warfarin (WF) were prepared by initially dissolving them in DMSO and diluting them with PBS until the concentration of DMSO was less than 5%. Solutions of each Ru complex were prepared by initial dissolution in DMSO and subsequent dilution using PBS until the concentration of DMSO was less than 5%. The total volume of each sample was 3.5 mL, where the concentration of HSA and DG/WF was 2.5 μM throughout the experiment. The Ru concentration ranged from 0 μM to 62.5 μM, with an increase of 12.5 μM for each sample. In total, six samples were prepared for each protein binding assay. After preparation, the samples were placed on an IKA Trayster inversion mixer (60 rpm) for 30 s and incubated at approximately 28 °C in a Neslab gp-200 for 15 min, before being placed back on the inversion mixer (60 rpm) for 30 s. All fluorescence measurements for the protein binding assay were made using a PTI QuantiMaster 50, and the samples were measured at room temperature with conditions respective to the probe.
One important consideration for a potential AD therapeutic is its interaction with serum proteins, specifically albumin (HSA). […] To determine the potential association of the prepared Ru complexes with HSA, a protein binding assay was performed. For these studies, the displacement of two fluorometric probes was used to determine the relative affinity of the Ru complexes for two of the established binding sites on HSA. The first probe, warfarin (WF), an anticoagulant, binds selectively to Sudlow site I on HSA [55], while the second probe used was dansyl glycine (DG), which selectively binds to Sudlow site II on HSA [56]. As these are the two major binding sites on the protein, the probes allow for observations of binding events that occur within these hydrophobic pockets. Individually, the probes were initially mixed with HSA, followed by increasing amounts of the respective Ru complexes, whereby the decrease in fluorescence signals from the respective probes (Figures S22–S30) was used to construct a Stern–Volmer plot, where the slope of the line represents the conditional binding constant (K’) for the respective Ru complexes to each site (Figure 8).

Aβ40 [3] = target: T1, Aβ40; experiment: TEM imaging of DLS filtrates; type: biochemical; settings: for Ranking TEM: scale 1 to 5 (1 = best, 5 = worst), qualitative
Description: Samples for TEM were prepared using the DLS filtrates following their analysis. An aliquot (20 µL) was added directly to a copper-coated formvar/carbon 300 mesh grid with a 63 µm pore size (Ted Pella). After settling for 1 min, the solvent was wicked away, then the grid was stained using 2% uranyl acetate (20 µL). After standing for one minute, the solvent was wicked away, and the grid was washed using dH2O (20 µL), which stayed on the grid for one minute before being wicked away. The grids were stored at room temperature until analysis. TEM images were collected using a high-resolution JEOL JEM 2100F operating at 200 kV.
The final evaluative step in the Aβ40 aggregation assay was imaging the samples using transmission electron microscopy (TEM). The samples used in the preparation of the TEM grids were those of the DLS filtrates, thereby allowing for a direct comparison between experimental methods, ultimately resulting in the same sample being measured by three different instruments. […] In order to determine the impact of each complex on Aβ40, multiple images were taken from each prepared grid (Figure S21), thereby providing an accurate representation of the particles.

Aβ40 [4] = target: T1, Aβ40; experiment: Dynamic light scattering (DLS) of ThT assay samples; type: biochemical; settings: for DLS prominent peak particle size / DLS minor feature share of the total spectrum / DLS minor feature particle size: Aβ40 co-incubated with complex 6 h; for DLS prominent peak particle size: PBS pH 7.4, 37 °C, Aβ40 alone around 340 nm; for DLS minor feature share of the total spectrum: Aβ40 alone 13 percent; for DLS minor feature particle size: Aβ40 alone 78 nm; for Ranking DLS: scale 1 to 5 (1 = best, 5 = worst)
Description: Samples were extracted from the ThT assay plate for DLS analysis. A 125 μL sample was placed into a 1 mL syringe and injected through a syringe filter (pore size: 0.2 μm), into a 0.5 mL microcentrifuge tube. The filtrate was added to a microvolume polystyrene cuvette and placed into a Malvern Zetasizer Nano ZSP to measure the DLS spectra. Measurements are represented as an average of percent intensity through several runs determined by Zetasizer software Version 7.13.1.
Samples for DLS analysis were taken directly from the ThT assay following its completion. This allowed for a comparison between both data sets, to determine if a correlation for activity between the complexes could be established. For the Aβ40 peptide alone, a prominent peak around 340 nm was observed, while following treatment with the respective Ru complexes, a discernable shift to smaller particle sizes was unanimously observed (Figure 6).

T2 sequence (P02768 25-609): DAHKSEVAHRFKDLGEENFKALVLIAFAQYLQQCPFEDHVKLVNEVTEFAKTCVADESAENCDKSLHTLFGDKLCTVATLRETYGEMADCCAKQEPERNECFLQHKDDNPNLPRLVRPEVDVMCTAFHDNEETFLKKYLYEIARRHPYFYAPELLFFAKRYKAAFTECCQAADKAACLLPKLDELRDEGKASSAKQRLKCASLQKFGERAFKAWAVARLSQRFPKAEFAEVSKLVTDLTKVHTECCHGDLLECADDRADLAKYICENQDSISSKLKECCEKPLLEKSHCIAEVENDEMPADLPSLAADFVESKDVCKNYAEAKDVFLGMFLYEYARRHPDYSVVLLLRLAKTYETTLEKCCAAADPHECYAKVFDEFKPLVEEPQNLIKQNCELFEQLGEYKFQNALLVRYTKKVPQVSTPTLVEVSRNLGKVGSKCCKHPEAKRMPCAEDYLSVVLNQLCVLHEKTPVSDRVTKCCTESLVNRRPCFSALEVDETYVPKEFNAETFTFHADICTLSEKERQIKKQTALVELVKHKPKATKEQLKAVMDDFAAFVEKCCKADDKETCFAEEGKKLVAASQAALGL
T1 sequence (P05067 672-711 limits assumed): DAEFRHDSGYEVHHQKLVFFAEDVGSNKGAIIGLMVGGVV

| Compound | Ranking ThT (Aβ40 [1]) | Log K (WF), conditional binding constant to serum albumin [2] | Ranking TEM (Aβ40 [3]) | DLS prominent peak particle size (Aβ40 [4]) [nm] | DLS minor feature share of the total spectrum (Aβ40 [4]) [%] | DLS minor feature particle size (Aβ40 [4]) [nm] | Ranking DLS (Aβ40 [4]) | appearance of Aβ40 particles in TEM images (Aβ40 [3]; DLS filtrates after 6 h co-incubation) | relative aggregation of Aβ40 (ThT fluorescence normalized to Aβ40 alone) (Aβ40 [1]) |
| --- | --- | --- | --- | --- | --- | --- | --- | --- | --- |
| Cc1ccc(C(C)C)cc1.Cc1ccnc(-c2cc(C)ccn2)c1.F[P-](F)(F)(F)(F)F.[Cl-].[Ru+2] [RuBMe, [Ru(η^6-p-cymene)(4,4′-dimethyl-2,2′-bipyridine)Cl]PF6] | 5 | 4.56 | 3 | 214 | 2 | 24 | 1 |  |  |
| [Ru(η^6-p-cymene)(4,4′-diamino-2,2′-bipyridine)Cl]PF6 [RuBA] | 1 | 4.38 | 1 | 231 | 3 | 42 | 4 | most dispersed and least dense particles |  |
| [Ru(η^6-p-cymene)(4,4′-di-tert-butyl-2,2′-bipyridine)Cl]PF6 [RuBtB] | 3 |  | 4 | 264 | 4 | 53 | 5 |  | 14.3% ± 0.6% |
| Cc1ccc(C(C)C)cc1.F[P-](F)(F)(F)(F)F.[Cl-].[Ru+2].c1ccc(-c2ccccn2)nc1 [RuB, [Ru(η^6-p-cymene)(2,2′-bipyridine)Cl]PF6] | 2 | 4.24 | 2 | 227 | 4 | 21 | 3 |  | 9.0% ± 2.3% |
| [Ru(η^6-p-cymene)(4,4′-dimethoxy-2,2′-bipyridine)Cl]PF6 [RuBMeO] | 4 | 4.00 | 5 | 239 | 11 | 32 | 2 |  | 16.1% ± 6.9% |
